From patent US12686664B2, “SOCE inhibitors and therapeutic uses thereof” (Institut National de la Santé et de la Recherche Médicale …, priority 2020, dated 2026)
Where “and” joins values, the source holds several entries; their conditions need not be identical. Equal values may be shown once. Read-outs that look alike come from different tables or passages of the source.

Columns and labels:
Type in all cases: cell-based
[1] = system: store-operated Ca^2+ entry in HEK 293; assay: Store-operated Ca2+ entry in HEK 293 cell line; conditions: for Effect on amplitude of SOCE peak: % of inhibition (−) or activation
Method: (§1) The effects of the molecules developed were tested on PLP-B lymphocytes. Store-operated Ca^2+ entry was induced by depletion of Endoplasmic Reticulum Ca^2+ stores (ER Ca^2+ stores) with thapsigargin (Tg) in a Ca^2+-free medium and measured following the addition of 1.8 mM of CaCl2) in the extracellular medium. The results are compared to the results obtained for known SOCE inhibitors SKF-96365, GSK-7975A, Synta 66.
(§2) Then, effects of the molecule that gave the best results in this test (i.e., molecule 6αa) were assessed in two cancer cell lines, namely: HEK 293 and HEK 651 HS1 tumor cell lines.

[2] = system: store-operated Ca^2+ entry in PLP-B lymphocytes; assay: Store-operated Ca2+ entry after thapsigargin depletion of ER Ca2+ stores in PLP-B lymphocytes; conditions: for inhibition at 0.1 µM / inhibition at 1 µM / inhibition at 10 µM / inhibition at 50 µM / inhibition at 100 µM / Effect on amplitude of SOCE peak: PLP-B lymphocytes, % of inhibition (−) or activation; for IC50: SOCE in PLP-B lymphocytes, average of three assays, ±0.5 μM
Method: as §1

[3] = system: store-operated Ca^2+ entry in HEK 651 HS1; assay: Store-operated Ca2+ entry in HEK 651 HS1 cell line; conditions: for Effect on amplitude of SOCE peak: % of inhibition (−) or activation; for IC50: average of three assays, ±0.5 μM
Method: as §1, §2

SOCE in JOK B cells = assay: Intracellular calcium levels / SOCE in JOK B cells (Fura-2AM, FlexStation 3); conditions: for amplitude of SOCE: 5 and 20 μM, compared to control, irrespective of incubation time (5, 15, 30 minutes, 1 hour)
Method: Intracellular calcium levels were monitored at 37° C. using the FlexStation 3™ (Molecular Devices, Berkshire, UK), a fluorescence plate reader measuring time-resolved intracellular Ca^2+ concentration in a 96-well format with cells loaded with the dual-wavelength fluorescent calcium-sensitive dye Fura-2AM.
Intracellular Ca^2+ stores were depleted with 2 μM Thapsigargin (an inhibitor of ER SERCA pumps) under Ca^2+-free conditions to determine the magnitude of intracellular Ca^2+ release. Next, the cells were returned to Ca^2+-containing Hepes-buffered solution to measure SOCE. The magnitude of SOCE was estimated as the maximal values of normalized fluorescence ratio following Ca^2+ re-addition.

HUVEC cells = assay: HUVEC cell death (Annexin/Propidium Iodide, flow cytometry); conditions: HUVEC (FIG. 8); 5 or 20 μM; treated for 48 hours
Method: FIG. 8. In vitro Effects of 6αa, GSK-7975-A and SKF-93365 on HUVEC Cell Death. […] Cell death was analyzed by flow cytometry following Annexin/Propidium Iodide labeling. Percentages of living cells, necrotic cells and apoptotic cells submitted to GSK-7975A (A), SKF-93365 (B), and 6αa (DAD 3-473) (C) treatment were normalized to the DMSO treatment conditions. Histograms present the amounts of apoptotic cells (annexin/PI positive cells) detected in each experimental condition after treatment with GSK-7975A (D), SKF-93365 (E), and 6αa (DAD 3-473) (F). Data are expressed as mean±SEM of n observations (n=2). Data are analyzed with non parametric Mann Withney analysis, *P<0.05, **P<0.01 and ***P<0.001.

PANC-1 cells = assay: PANC-1 cytotoxicity (Cell Tox green assay); conditions: 5 and 20 μM, 24 hours
Method: Analysis of Cell Proliferation. For PANC-1 cell proliferation and cell cytotoxicity measurements, […] were seeded in 96 well-plates in 100 μL of DMEM medium. Cells were incubated for 24 hours at 37° C. with 3 different SOCE inhibitors (GSK-7975-A, SKF-93365 and 6αa) at 2 different concentrations (5 and 20 μM) compared to DMSO and untreated cells. Cell proliferation was evaluated using the Cell Titer kit proliferation assay (Promega). Cytotoxicity was evaluated using the Cell Tox green cytotoxicity assay (Promega). All the kits were used following manufacturer recommendations and using a plate reader.

JOK cells [4] = assay: JOK cell viability and apoptosis assays (LIVE/DEAD, Annexin V-FITC/PI); conditions: JOK B cells (FIG. 7); 5 or 20 μM; treated for 48 hours
Method: Cell Viability Assays. JOK cells were treated with test compounds (GSK-7975-A, SKF-93365 and 6αa) or solvent for 48 hours. JOK cells viability was then assessed using LIVE/DEAD cell viability assays kit (Abcam). Differentially labeled live and dead cells with fluorescent dyes are analyzed by flow cytometry.
Apoptosis Assay. Apoptosis of JOK cells were determined by Annexin V-FITC/PI staining (Biolegend) using flow cytometry. The percentage of annexin V-FITC and propidium iodide-[…] cells were assessed using Kaluza 1.3.

JOK cells [5] = assay: Migration of JOK cells through HUVEC in transwells; conditions: 5 or 20 μM
Method: Migration Protocol. Migration chambers (transwells) (Transwell 5.0 m polycarbonate membrane Costar) were coated overnight (37° C., 5% CO2) with 100 μL of fibronectine solution containing BSA (1 mg/ml) and LHC Basal Medium. Primary HUmbilical Vein Endothelial Cells (HUVEC) were seeded in each transwell (100 000/well) and cultured for 24 hours (37° C., 5% CO2). To evaluate B cell migration, JOK cells were added (300 000/well) to each transwell upper chamber containing RPMI 1640 medium (BioWest) containing 0.5% BSA and SDF1 (200 ng/ml) was added in the bottom chamber. Cells were cultures in the presence or absence of a test compound (GSK-7975-A, SKF-93365 and 6αa) or solvent. After 24 hours (37° C., 5% CO2), migrated cells were collected in the bottom chambers and counted by flow cytometry. The percentages of migration were calculated for each experimental collection.

COc1ccc(CCCOC(Cn2ccnc2)c2ccc(OC)cc2)cc1 (centres unmarked) [SKF-96365]
Effect on amplitude of SOCE peak ([1]; 0.1 μM): −25%
Effect on amplitude of SOCE peak ([1]; 1 μM): −21%
Effect on amplitude of SOCE peak ([1]; 5 μM): −23%
Effect on amplitude of SOCE peak ([1]; 10 μM): −4%
Effect on amplitude of SOCE peak ([1]; 50 μM): −33%
inhibition at 0.1 µM ([2]; Lymphocyte, DMSO control 100%, read-out: Effect on amplitude of SOCE Peak): 3.4%
inhibition at 0.1 µM ([2]; Lymphocyte, thapsigargin (Tg) peak, read-out: Effect on amplitude of Tg Peak): -2.4%
inhibition at 1 µM ([2]; Lymphocyte, 1 μM, DMSO control 100%, read-out: Effect on amplitude of SOCE Peak): 26.4%
inhibition at 1 µM ([2]; Lymphocyte, 1 μM, thapsigargin (Tg) peak, read-out: Effect on amplitude of Tg Peak): -6.5%
inhibition at 10 µM ([2]; Lymphocyte, 10 μM, DMSO control 100%, read-out: Effect on amplitude of SOCE Peak): 15.4%
inhibition at 10 µM ([2]; Lymphocyte, 10 μM, thapsigargin (Tg) peak, read-out: Effect on amplitude of Tg Peak): 6.6%
inhibition at 50 µM ([2]; Lymphocyte, 50 μM, DMSO control 100%, read-out: Effect on amplitude of SOCE Peak): 44.3%
inhibition at 50 µM ([2]; Lymphocyte, 50 μM, thapsigargin (Tg) peak, read-out: Effect on amplitude of Tg Peak): 11.1%
inhibition at 100 µM ([2]; Lymphocyte, 100 μM, DMSO control 100%, read-out: Effect on amplitude of SOCE Peak): 58.7%
inhibition at 100 µM ([2]; Lymphocyte, 100 μM, thapsigargin (Tg) peak, read-out: Effect on amplitude of Tg Peak): 8%
IC50 ([2]; Lymphocyte): 60 µM
Effect on amplitude of SOCE peak ([3]; 0.1 μM): −8%
Effect on amplitude of SOCE peak ([3]; 1 μM): −6%
Effect on amplitude of SOCE peak ([3]; 5 μM): −9%
Effect on amplitude of SOCE peak ([3]; 10 μM): −17%
Effect on amplitude of SOCE peak ([3]; 50 μM): −63%
IC50 [3]: 40 µM
amplitude of Ca2+ release from the endoplasmic stores (SOCE in JOK B cells): not found to be significantly affected
amplitude of SOCE (SOCE in JOK B cells): significantly reduces
apoptosis or necrosis of cells (HUVEC cells): do not induce apoptosis or necrosis
cytotoxicity in cancer PANC-1 cells (PANC-1 cells): no cytotoxic effects
apoptosis or necrosis of cells (JOK cells [4]): do not induce apoptosis or necrosis

O=C(Nc1ccn(Cc2ccc(O)cc2C(F)(F)F)n1)c1c(F)cccc1F [GSK-7975A]
Effect on amplitude of SOCE peak ([1]; 0.1 μM): −7%
Effect on amplitude of SOCE peak ([1]; 1 μM): −31%
Effect on amplitude of SOCE peak ([1]; 5 μM): −66%
Effect on amplitude of SOCE peak ([1]; 10 μM): −75%
Effect on amplitude of SOCE peak ([1]; 50 μM): −87%
IC50 ([1]; average of three assays, ±0.5 μM): 2 µM
Effect on amplitude of SOCE peak ([2]; 1 μM, DMSO control 100%): 19.0% and 9.0%
Effect on amplitude of SOCE peak ([2]; 10 μM, DMSO control 100%): −9.0%
Effect on amplitude of SOCE peak ([2]; 50 μM, DMSO control 100%): −88.0%
Effect on amplitude of SOCE peak ([2]; 100 μM, DMSO control 100%): −94.0%
IC50 [2]: 2.3 µM
Effect on amplitude of SOCE peak ([3]; 0.1 μM): 0%
Effect on amplitude of SOCE peak ([3]; 1 μM): −2%
Effect on amplitude of SOCE peak ([3]; 5 μM): −19%
Effect on amplitude of SOCE peak ([3]; 10 μM): −22%
Effect on amplitude of SOCE peak ([3]; 50 μM): −72%
IC50 [3]: 44 µM
amplitude of Ca2+ release from the endoplasmic stores (SOCE in JOK B cells): not found to be significantly affected
amplitude of SOCE (SOCE in JOK B cells): significantly reduces
transendothelial migration through HUVEC of JOK cells (JOK cells [5]): does not
apoptosis or necrosis of cells (HUVEC cells): do not induce apoptosis or necrosis
cytotoxicity in cancer PANC-1 cells (PANC-1 cells): no cytotoxic effects
apoptosis or necrosis of cells (JOK cells [4]): do not induce apoptosis or necrosis
